Tests used:
[1] = molecular target: D(2) dopamine receptor (Homo sapiens) (UniProt P14416); assay: Agonist activity at human D2L receptor expressed in CHOK1 cells assessed as inhibition of receptor response at 0.1 uM by calcium flux assay relative to control; type: functional, cell-based
[2] = molecular target: D(2) dopamine receptor (Homo sapiens) (UniProt P14416); assay: Antagonist activity at human D2L receptor expressed in CHOK1 cells assessed as inhibition of dopamine-induced calcium flux at 0.1 uM by fluorescence assay relative to control; type: functional, cell-based
hERG (KCNH2) [3] = molecular target: T1, hERG (KCNH2) (Homo sapiens, UniProt Q12809); assay: (§1) Inhibition of human ERG at 3 uM relative to control
T1 sequence (Q12809 whole entry): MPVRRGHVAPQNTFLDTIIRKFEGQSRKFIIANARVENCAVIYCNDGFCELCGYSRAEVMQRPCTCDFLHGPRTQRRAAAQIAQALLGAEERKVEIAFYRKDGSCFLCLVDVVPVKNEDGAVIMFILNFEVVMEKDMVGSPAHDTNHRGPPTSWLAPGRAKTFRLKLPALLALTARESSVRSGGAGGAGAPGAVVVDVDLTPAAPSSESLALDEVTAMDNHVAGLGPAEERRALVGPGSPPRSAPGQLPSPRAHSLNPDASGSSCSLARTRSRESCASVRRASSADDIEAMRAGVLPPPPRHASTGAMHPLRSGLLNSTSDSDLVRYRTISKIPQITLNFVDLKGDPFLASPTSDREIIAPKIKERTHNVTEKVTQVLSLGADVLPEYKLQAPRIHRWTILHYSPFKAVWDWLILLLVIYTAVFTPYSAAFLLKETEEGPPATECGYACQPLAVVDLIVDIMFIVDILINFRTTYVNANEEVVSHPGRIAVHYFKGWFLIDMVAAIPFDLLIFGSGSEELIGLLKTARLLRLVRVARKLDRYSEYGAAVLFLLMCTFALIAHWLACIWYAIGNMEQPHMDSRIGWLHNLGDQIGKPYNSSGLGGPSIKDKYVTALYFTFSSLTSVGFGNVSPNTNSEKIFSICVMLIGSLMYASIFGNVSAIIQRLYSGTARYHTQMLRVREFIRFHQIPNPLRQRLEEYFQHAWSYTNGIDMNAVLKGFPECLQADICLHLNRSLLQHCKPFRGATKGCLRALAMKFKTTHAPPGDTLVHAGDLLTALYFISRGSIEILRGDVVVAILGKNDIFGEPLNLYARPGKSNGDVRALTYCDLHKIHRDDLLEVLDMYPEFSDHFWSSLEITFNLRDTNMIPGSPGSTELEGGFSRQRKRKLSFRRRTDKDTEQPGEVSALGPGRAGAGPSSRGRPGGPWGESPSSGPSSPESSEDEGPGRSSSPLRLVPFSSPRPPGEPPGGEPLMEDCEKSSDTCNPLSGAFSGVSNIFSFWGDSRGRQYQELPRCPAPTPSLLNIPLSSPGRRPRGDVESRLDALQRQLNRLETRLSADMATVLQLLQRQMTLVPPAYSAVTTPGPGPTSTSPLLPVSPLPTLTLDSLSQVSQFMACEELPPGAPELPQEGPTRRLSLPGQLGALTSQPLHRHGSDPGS

[4] = Stability in rat microsomes; type: ADME, Microsome; note: time not given here
[5] = Stability in human microsomes; type: ADME, Microsome; note: time not given here
[6] = molecular target: D(2) dopamine receptor (Homo sapiens) (UniProt P14416); assay: Agonist activity at human D2L receptor expressed in CHOK1 cells assessed as inhibition of receptor response at 10 uM by calcium flux assay relative to control; type: functional, cell-based
hERG (KCNH2) [7] = molecular target: T1, hERG (KCNH2); assay: (§2) Inhibition of human ERG at 10 uM relative to control
[8] = Stability in mouse microsomes; type: ADME, Microsome; note: time not given here
[9] = molecular target: D(2) dopamine receptor (Homo sapiens) (UniProt P14416); assay: Antagonist activity at human D2L receptor expressed in CHOK1 cells assessed as inhibition of dopamine-induced calcium flux at 10 uM by fluorescence assay relative to control; type: functional, cell-based
[10] = Passive permeability in human Caco2 cells; type: ADME, cell-based; conditions: caco-2
hERG (KCNH2) [11] = molecular target: T1, hERG (KCNH2); assay: (§3) Inhibition of human ERG at 1 uM relative to control
Homo sapiens [12] = organism: Homo sapiens; assay: Agonist activity at recombinant human D4.4 expressed in CHOK1 cells assessed as inhibition of receptor response at 0.1 uM by HTRF based cAMP assay relative to control; type: cell-based
Homo sapiens [13] = organism: Homo sapiens; assay: Agonist activity at recombinant human D4.4 expressed in CHOK1 cells assessed as inhibition of receptor response at 10 uM by HTRF based cAMP assay relative to control; type: cell-based
[14] = Efflux ratio of permeability in human Caco2 cells; type: ADME, cell-based; conditions: caco-2
[15] = molecular target: T2, Voltage-gated inwardly rectifying potassium channel KCNH2 (Homo sapiens, UniProt Q12809); assay: as §1; conditions: 3 µM
T2 sequence (Q12809 whole entry): as above

[16] = molecular target: T2, Voltage-gated inwardly rectifying potassium channel KCNH2; assay: as §2; conditions: 10 µM
[17] = molecular target: T2, Voltage-gated inwardly rectifying potassium channel KCNH2; assay: as §3; conditions: 1 µM

Sequence of D(2) dopamine receptor (Homo sapiens) (P14416 whole entry): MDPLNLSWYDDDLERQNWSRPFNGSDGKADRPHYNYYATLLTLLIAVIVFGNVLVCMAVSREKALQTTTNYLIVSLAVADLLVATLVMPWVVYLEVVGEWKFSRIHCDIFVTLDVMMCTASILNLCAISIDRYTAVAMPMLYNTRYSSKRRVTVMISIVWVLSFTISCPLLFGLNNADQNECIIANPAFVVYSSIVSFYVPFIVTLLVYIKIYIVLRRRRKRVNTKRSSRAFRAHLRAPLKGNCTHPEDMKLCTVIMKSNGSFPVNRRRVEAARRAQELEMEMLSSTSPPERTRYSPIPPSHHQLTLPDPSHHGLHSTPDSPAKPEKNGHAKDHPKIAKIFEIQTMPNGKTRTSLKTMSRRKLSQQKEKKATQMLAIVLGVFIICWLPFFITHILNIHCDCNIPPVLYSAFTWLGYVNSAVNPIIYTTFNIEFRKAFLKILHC

SMILES | inhibition [1] | inhibition [2] | inhibition at 3 µM (hERG (KCNH2) [3]) | Stability [4] | Stability [5] | inhibition [6] | inhibition at 10 µM (hERG (KCNH2) [7]) | Stability [8] | inhibition [9] | permeability [10] | inhibition at 1 µM (hERG (KCNH2) [11]) | inhibition (Homo sapiens [12]) | inhibition (Homo sapiens [13]) | efflux ratio [14] | inhibition (INH) [15] | inhibition (INH) [16] | inhibition (INH) [17] | Ratio [14]
CCCN1CCC(c2ccccc2OC)CC1 | 52% | -7% | 5.5% | 4% | 86% | 99% | 14% | 30% | 14% | 100% | 2% | 9% | 12% | 1 | – | – | – | –
CCCN1C[C@H]2OC[C@@H]1C[C@]2(O)c1ccccc1OC | 6% | 12% | 5% | 15% | 100% | 3% | 14% | 55% | 16% | 100% | 4% | 6% | -6% | 0.6 | – | – | – | –
CCCN1[C@@H]2COC[C@H]1CN(c1ccccc1OC)C2 | 3% | 9% | 2% | 4% | 70% | 19% | 12% | 18% | 5% | 100% | 2% | 3% | 3% | 0.9 | – | – | – | –
CCCN1C[C@H]2OC[C@@H]1C[C@@H]2c1ccccc1OC | 25% | – | 3% | 3% | 100% | 16% | 15% | 4% | – | 100% | 0% | – | – | 0.8 | – | – | – | –
CCCN1C[C@H]2OC[C@@H]1C[C@H]2c1ccccc1OC | 4% | -6% | 9% | 3% | 41% | 7% | 22% | 9% | 13% | 100% | 3% | 5% | 21% | 0.8 | – | – | – | –
CCCN1C[C@H]2OC[C@@H]1C[C@@]2(O)c1ccccc1OC | 25% | 4% | 4% | 53% | 66% | 16% | 6% | 18% | 4% | 100% | 3% | 4% | 15% | 3 | – | – | – | –
CCCN1CCN(c2ccccc2OC)CC1 | 50% | – | 16% | 2% | 63% | 99% | 41% | 2% | -1% | 100% | 8% | 9% | 12% | 1.1 | – | – | – | –
CCCN1[C@H]2CC[C@H]1CC(c1cccc(OC)c1)C2 (relative stereo) | 9% | 12% | 54% | 2% | 4% | 32% | 81% | 3% | 13% | 100% | 30% | 4% | 16% | 2.6 | – | – | – | –
CCCN1[C@H]2CC[C@H]1CC(c1ccc(OC)c(OC)c1)C2 (relative stereo) | 6% | 8% | 62% | 4% | 50% | 20% | 85% | 21% | 11% | 99% | 36% | -1% | 17% | 3.4 | – | – | – | –
CCCN1[C@H]2CC[C@H]1CC(c1ccc(OC)cc1)C2 (relative stereo) | -1% | 0% | 78% | 2% | 8% | 40% | 93% | 5% | 9% | 100% | 58% | 9% | 21% | 3 | – | – | – | –
CCCN1[C@H]2CC[C@H]1CC(O)(c1ccccc1OC)C2 (relative stereo) | – | – | 19% | 12% | 100% | -8% | 46% | 54% | – | 100% | 7% | – | – | 1.2 | – | – | – | –
CCCN1[C@H]2CC[C@H]1CC(c1cc(OC)c(OC)c(OC)c1)C2 (relative stereo) | 0% | 12% | 40% | 4% | 100% | 4% | 66% | 5% | 8% | 99% | 20% | – | -1% | 5.6 | – | – | – | –
CCCN1[C@H]2CC[C@H]1CC(c1ccccc1OC)C2 (relative stereo; 4) [listing 1 of 2 here] | – | – | – | – | 62% | – | – | 6% | – | 99.7% | – | – | – | – | 25% | 56.5% | 10% | 4.1
CCCN1[C@H]2CC[C@H]1CC(c1ccccc1OC)C2 (relative stereo; 4) [listing 2 of 2 here] | 8% | 19% | – | – | – | 0% | – | – | 22% | – | – | 10% | 11% | – | – | – | – | –
CCCN1[C@H]2CC[C@H]1CC(c1ccccc1OC)C2 (relative stereo; 8a) [listing 1 of 2 here] | – | – | – | 2% | 25% | – | 74% | 3% | – | 100% | – | – | – | 2.9 | 46% | – | 22% | –
CCCN1[C@H]2CC[C@H]1CC(c1ccccc1OC)C2 (relative stereo; 8a) [listing 2 of 2 here] | 2% | 14% | – | – | – | 35% | – | – | 29% | – | – | -3% | – | – | – | – | – | –
CCCN1[C@H]2COC[C@H]1CC(c1ccccc1OC)C2 (relative stereo; 16) [listing 1 of 2 here] | – | – | – | – | 35% | – | – | 7% | – | – | – | – | – | – | 17% | 39% | 6% | 3.1
CCCN1[C@H]2COC[C@H]1CC(c1ccccc1OC)C2 (relative stereo; 16) [listing 2 of 2 here] | 4% | 21% | – | – | – | 11% | – | – | 34% | – | – | 3% | 20% | – | – | – | – | –
CCCN1[C@H]2COC[C@H]1CC(c1ccccc1OC)C2 (relative stereo; 20) [listing 1 of 2 here] | – | – | 34% | 1% | 42% | – | – | 2% | – | 100% | – | – | – | 2.3 | – | 64% | 17% | –
CCCN1[C@H]2COC[C@H]1CC(c1ccccc1OC)C2 (relative stereo; 20) [listing 2 of 2 here] | 22% | 10% | – | – | – | 30% | – | – | 12% | – | – | 14% | – | – | – | – | – | –

— ChEMBL document CHEMBL4229414, “Design and synthesis of bridged piperidine and piperazine isosteres” (Bioorg Med Chem Lett, 2018)
